Laboratory results as given in patent US9481676B2, “Azepino[4,5-B]indoles and methods of use” (Medivation Technologies, Inc., priority 2008, dated 2016).

What was measured:
[1] = target: T1, human recombinant serotonin (5-Hydroxytryptamine) 5-HT2A receptor (Homo sapiens, UniProt P28223); assay: Serotonin 5-HT2A radioligand binding ([3H]Ketanserin); conditions: compound at 1 μM; read-out: Serotonin (1 μM) 5-HT2A, percent inhibition of specific binding
T1 construct: expressed in transfected cells; host or cells: CHO-K1 cells
T1 sequence (P28223 whole entry): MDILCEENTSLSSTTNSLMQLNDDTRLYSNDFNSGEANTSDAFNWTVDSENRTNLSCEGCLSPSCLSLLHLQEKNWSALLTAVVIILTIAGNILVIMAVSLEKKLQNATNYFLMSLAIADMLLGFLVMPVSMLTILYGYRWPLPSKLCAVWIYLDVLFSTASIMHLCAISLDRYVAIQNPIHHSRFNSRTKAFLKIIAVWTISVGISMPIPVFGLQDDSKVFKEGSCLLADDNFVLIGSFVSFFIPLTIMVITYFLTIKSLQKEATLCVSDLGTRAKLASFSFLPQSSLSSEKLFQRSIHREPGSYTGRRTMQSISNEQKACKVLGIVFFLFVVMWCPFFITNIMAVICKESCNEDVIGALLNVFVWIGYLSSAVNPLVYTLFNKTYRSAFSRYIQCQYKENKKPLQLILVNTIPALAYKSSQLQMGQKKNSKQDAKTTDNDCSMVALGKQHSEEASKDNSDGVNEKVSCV
Summary of the method: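 Percent inhibition of specific [3H]ketanserin (0.5 nM) binding, filtration read-out, with compounds at ≤1 μM (1% DMSO vehicle). Receptor source: recombinant human 5-HT2A in CHO-K1 cells, 50 mM Tris-HCl pH 7.4, 60 min, 25 °C; 1 μM mianserin gives nonspecific binding.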

[2] = target: T2, human recombinant serotonin (5-Hydroxytryptamine) 5-HT6 receptor (Homo sapiens, UniProt P50406); assay: Serotonin 5-HT6 radioligand binding ([3H]LSD); conditions: compound at 1 μM; read-out: Serotonin (1 μM) 5-HT6, percent inhibition of specific binding
T2 construct: expressed in transfected cells; host or cells: human HeLa cells
T2 sequence (P50406 whole entry): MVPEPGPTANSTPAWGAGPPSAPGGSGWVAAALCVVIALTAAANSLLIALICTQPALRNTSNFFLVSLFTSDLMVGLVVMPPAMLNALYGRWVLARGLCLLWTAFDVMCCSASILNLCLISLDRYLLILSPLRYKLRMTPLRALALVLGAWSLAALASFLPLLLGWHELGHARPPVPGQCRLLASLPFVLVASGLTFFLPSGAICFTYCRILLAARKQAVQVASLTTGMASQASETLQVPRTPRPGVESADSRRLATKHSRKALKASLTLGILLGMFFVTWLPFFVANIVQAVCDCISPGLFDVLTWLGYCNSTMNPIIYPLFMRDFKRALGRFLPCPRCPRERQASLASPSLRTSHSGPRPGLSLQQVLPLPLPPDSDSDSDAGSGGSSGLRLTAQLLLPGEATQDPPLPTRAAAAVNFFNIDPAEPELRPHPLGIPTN
Summary of the method: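 Human recombinant 5-HT6 receptor from HeLa cells incubated with 1.5 nM [3H]LSD for 120 min at 37° C in 50 mM Tris-HCl pH 7.4, 150 mM NaCl, 2 mM ascorbic acid, 0.001% BSA. Nonspecific binding defined with 5 μM serotonin; bound ligand counted after filtration.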

[3] = target: T3, human recombinant adrenergic α1D receptor (Homo sapiens, UniProt P25100); assay: Adrenergic alpha1D radioligand binding ([3H]Prozosin); conditions: compound at 1 μM; read-out: Adrenergic (1 μM) α1D, percent inhibition of specific binding
T3 construct: expressed in transfected cells; host or cells: HEK-293 cells
T3 sequence (P25100 1-572): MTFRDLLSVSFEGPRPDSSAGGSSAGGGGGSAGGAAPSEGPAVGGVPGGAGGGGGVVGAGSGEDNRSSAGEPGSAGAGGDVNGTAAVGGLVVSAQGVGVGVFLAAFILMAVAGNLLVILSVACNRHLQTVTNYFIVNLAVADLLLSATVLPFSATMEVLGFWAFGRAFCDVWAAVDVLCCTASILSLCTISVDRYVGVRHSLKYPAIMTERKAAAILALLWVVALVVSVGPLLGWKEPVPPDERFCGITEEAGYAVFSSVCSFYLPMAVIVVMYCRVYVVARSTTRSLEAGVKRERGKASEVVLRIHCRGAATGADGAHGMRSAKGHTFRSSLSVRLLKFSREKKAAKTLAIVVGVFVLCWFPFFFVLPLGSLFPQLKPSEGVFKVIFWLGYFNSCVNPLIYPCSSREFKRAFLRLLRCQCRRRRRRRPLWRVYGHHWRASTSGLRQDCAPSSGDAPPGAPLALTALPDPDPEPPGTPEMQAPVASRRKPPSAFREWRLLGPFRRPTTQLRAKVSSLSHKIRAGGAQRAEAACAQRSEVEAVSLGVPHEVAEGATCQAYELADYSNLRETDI
Experimental: To evaluate in radioligand binding assays the activity of compounds of the invention, human recombinant adrenergic α1D receptor expressed in human embryonic kidney (HEK-293) cells (Kenny, B. A. et al. Br. J. Pharmacol. 115(6):981, 1995) in a 50 mM Tris-HCl buffer, pH 7.4, was used. Compounds of invention were incubated with 0.6 nM [^3H]Prozosin for 60 min. at 25° C. Non-specific binding was estimated in the presence of 10 μM phentolamine. Receptor proteins were filtered and washed, the filters were then counted to determine [^3H]Prozosin specifically bound. Compounds were screened at 1 μM or lower, using 1% DMSO as vehicle. Biochemical assay results are presented as the percent inhibition of specific binding in Table 5.

[4] = target: T4, human recombinant histamine H2 receptor (Homo sapiens, UniProt P25021); assay: Histamine H2 radioligand binding ([125I]Aminopotentidine); conditions: compound at 1 μM; read-out: Histamine Binding (1 μM) H2, percent inhibition of specific binding
T4 construct: expressed in transfected cells; host or cells: CHO-K1 cells
T4 sequence (P25021 whole entry): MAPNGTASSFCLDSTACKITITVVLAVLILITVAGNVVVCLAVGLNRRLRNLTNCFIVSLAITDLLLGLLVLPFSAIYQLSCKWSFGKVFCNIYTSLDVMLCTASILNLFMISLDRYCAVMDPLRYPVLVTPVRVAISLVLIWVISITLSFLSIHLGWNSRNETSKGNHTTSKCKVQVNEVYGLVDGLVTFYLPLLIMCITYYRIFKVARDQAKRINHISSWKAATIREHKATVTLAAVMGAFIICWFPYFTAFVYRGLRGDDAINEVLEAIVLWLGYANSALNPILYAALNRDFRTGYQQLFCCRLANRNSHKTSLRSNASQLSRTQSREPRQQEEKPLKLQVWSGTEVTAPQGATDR
Summary of the method: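 Membranes from CHO-K1 cells expressing recombinant human H2 receptor, in 50 mM phosphate buffer pH 7.4, incubated with 0.1 nM [125I]aminopotentidine for 120 min at 25 °C; nonspecific binding defined with 3 μM tiotidine.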

SMILES	inhibition at 1 µM [1] [%]	inhibition at 1 µM [2] [%]	inhibition at 1 µM [3] [%]	inhibition at 1 µM [4] [%]
Cc1ccc2c(c1)c1c(n2CCc2cncc(Cl)c2)CCN(C)CC1 [Compound No. 4, 6-(2-(5-chloropyridin-3-yl)ethyl)-1,2,3,4,5,6-hexahydro-3,9-dimethylazepino[4,5-b]indole]	93	83	76	59
CN1CCc2c(n(CCc3ccncc3)c3ccc(Cl)cc23)CC1 [Compound No. 5, 9-chloro-1,2,3,4,5,6-hexahydro-3-methyl-6-(2-(pyridin-4-yl)ethyl)azepino[4,5-b]indole]	96	93	88	62
Cc1ccc2c(c1)c1c(n2CCc2ccncc2)CCN(C)CC1 [Compound No. 6, 1,2,3,4,5,6-hexahydro-3,9-dimethyl-6-(2-(pyridin-4-yl)ethyl)azepino[4,5-b]indole]	96	82	92	52
Cc1ccc(C(O)Cn2c3c(c4cc(Cl)ccc42)CCN(C)CC3)cn1 (centres unmarked) [Compound No. 7, 2-(9-chloro-2,3,4,5-tetrahydro-3-methylazepino[4,5-b]indol-6(1H)-yl)-1-(6-methylpyridin-3-yl)ethanol]	80	36	69	52
CN1CCc2c(n(CCc3ccccn3)c3ccc(Cl)cc23)CC1 [Compound No. 8, 9-chloro-1,2,3,4,5,6-hexahydro-3-methyl-6-(2-(pyridin-2-yl)ethyl)azepino[4,5-b]indole]	97	100	91	68
Cc1ccc2c(c1)c1c(n2CCc2ccccn2)CCN(C)CC1 [Compound No. 9, 1,2,3,4,5,6-hexahydro-3,9-dimethyl-6-(2-(pyridin-2-yl)ethyl)azepino[4,5-b]indole]	96	81	80	44
CN1CCc2c(n(CCc3cncc(Cl)c3)c3ccc(Cl)cc23)CC1 [Compound No. 10, 9-chloro-6-(2-(5-chloropyridin-3-yl)ethyl)-1,2,3,4,5,6-hexahydro-3-methylazepino[4,5-b]indole]	94	97	89	78
Cc1ccc2c(c1)c1c(n2CCc2ccc(C(=O)O)nc2)CCN(C)CC1 [Compound No. 11, 5-(2-(2,3,4,5-tetrahydro-3,9-dimethylazepino[4,5-b]indol-6(1H)-yl)ethyl)pyridine-2-carboxylic acid]	5	4	7	7
CN1CCc2c(n(CC(C)(O)c3ccc(Cl)cc3)c3ccc(Cl)cc23)CC1 (centres unmarked) [Compound No. 12, 1-(9-chloro-2,3,4,5-tetrahydro-3-methylazepino[4,5-b]indol-6(1H)-yl)-2-(4-chlorophenyl)propan-2-ol]	100	83	68	98
CN1CCc2c(n(CC(C)(O)c3ccc(F)cc3)c3ccc(Cl)cc23)CC1 (centres unmarked) [Compound No. 13, 1-(9-chloro-2,3,4,5-tetrahydro-3-methylazepino[4,5-b]indol-6(1H)-yl)-2-(4-fluorophenyl)propan-2-ol]	97	100	76	92
Cc1ccc2c(c1)c1c(n2CC(C)(O)c2ccc(F)cc2)CCN(C)CC1 (centres unmarked) [Compound No. 14, 2-(4-fluorophenyl)-1-(2,3,4,5-tetrahydro-3,9-dimethylazepino[4,5-b]indol-6(1H)-yl)propan-2-ol]	101	93	75	83
Cc1ccc2c(c1)c1c(n2CC(C)(O)c2ccc(Cl)cc2)CCN(C)CC1 (centres unmarked) [Compound No. 15, 2-(4-chlorophenyl)-1-(2,3,4,5-tetrahydro-3,9-dimethylazepino[4,5-b]indol-6(1H)-yl)propan-2-ol]	101	82	72	92
CN1CCc2c(n(CC(O)c3ccc(Cl)cc3)c3ccc(Cl)cc23)CC1 (centres unmarked) [Compound No. 16, 2-(9-chloro-2,3,4,5-tetrahydro-3-methylazepino[4,5-b]indol-6(1H)-yl)-1-(4-chlorophenyl)ethanol]	101	78	85	92
Cc1ccc2c(c1)c1c(n2CC(O)c2ccc(Cl)cc2)CCN(C)CC1 (centres unmarked) [Compound No. 17, 1-(4-chlorophenyl)-2-(2,3,4,5-tetrahydro-3,9-dimethylazepino[4,5-b]indol-6(1H)-yl)ethanol]	102	80	95	84
CN1CCc2c(n(CC(O)c3cccnc3)c3ccc(Cl)cc23)CC1 (centres unmarked) [Compound No. 18, 2-(9-chloro-2,3,4,5-tetrahydro-3-methylazepino[4,5-b]indol-6(1H)-yl)-1-(pyridin-3-yl)ethanol]	88	60	58	51
Cc1ccc2c(c1)c1c(n2CC(O)c2cccnc2)CCN(C)CC1 (centres unmarked) [Compound No. 19, 2-(2,3,4,5-tetrahydro-3,9-dimethylazepino[4,5-b]indol-6(1H)-yl)-1-(pyridin-3-yl)ethanol]	80	42	54	42
Cc1ccc2c(c1)c1c(n2CCc2ccc(C(F)(F)F)nc2)CCN(C)CC1 [Compound No. 20, 6-(2-(6-(trifluoromethyl)pyridin-3-yl)ethyl)-1,2,3,4,5,6-hexahydro-3,9-dimethylazepino[4,5-b]indole]	95	46	91	37
CN1CCc2c(n(CCc3ccc(C(=O)O)nc3)c3ccc(Cl)cc23)CC1 [Compound No. 21, 5-(2-(9-chloro-2,3,4,5-tetrahydro-3-methylazepino[4,5-b]indol-6(1H)-yl)ethyl)pyridine-2-carboxylic acid]	8	30	17	13
Cc1ccc2c(c1)c1c(n2CC(=O)NC2CCCCC2)CCN(C)CC1 [Compound No. 22, N-cyclohexyl-2-(2,3,4,5-tetrahydro-3,9-dimethylazepino[4,5-b]indol-6(1H)-yl)acetamide]	-2	-12	1	5
Cc1ccc2c(c1)c1c(n2CC(O)c2ccc(C)nc2)CCN(C)CC1 (centres unmarked) [Compound No. 23, 2-(2,3,4,5-tetrahydro-3,9-dimethylazepino[4,5-b]indol-6(1H)-yl)-1-(6-methylpyridin-3-yl)ethanol]	67	17	17	-3
